Experimental findings from US20250235543A1, “MODIFIED PROTEINS AND PROTEIN DEGRADERS” (Cullgen (Shanghai), Inc., priority 2021, published 2025) are described below.

One assay addresses T1, CDK4 (Homo sapiens, UniProt P11802).
T1 construct: endogenous in cells; host or cells: Calu-1
Nature of the assay: CDK4 percentage degradation in Calu-1 cells (immunoblotting). Type of assay: cell-based. The conditions noted are these: for inhibition at 0.2 µM: read-out: CDK4 Degradation (200 nM); for inhibition at 10 µM: read-out: CDK4 Degradation (10 μM). In short, it runs like this:
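Cultured cells were rinsed once in cold PBS and lysed in cold RIPA buffer containing protease and phosphatase inhibitors, with gentle agitation at 4° C. for 30 min. Lysates were centrifuged at 13,000 rpm for 10 min at 4° C., and protein was quantified by BCA. Samples were then separated by SDS-PAGE, detected with ECL, and the CDK4 bands quantified in Image Lab.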
On the technique in general: In western blotting, separated proteins are transferred to a membrane and probed.

The next assay has as its system cyclin D1. The experiment in a line: Cyclin D1 percentage degradation in Calu-1 cells (immunoblotting). The settings on record: 16 hours. The assay is classed as cell-based. In short, it runs like this:
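Cells were rinsed once in cold PBS and lysed in cold RIPA buffer containing protease and phosphatase inhibitors, with gentle agitation at 4° C. for 30 min. Lysates were spun at 13,000 rpm for 10 min at 4° C., protein was measured by BCA, and samples were boiled in Laemmli buffer at 99° C. for 5 min before SDS-PAGE immunoblotting.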

The structures appear in SMILES notation. Like-named read-outs stand apart in the source and are kept apart here. Some results are limits rather than exact numbers.

T1 sequence (P11802 2-303 limits assumed): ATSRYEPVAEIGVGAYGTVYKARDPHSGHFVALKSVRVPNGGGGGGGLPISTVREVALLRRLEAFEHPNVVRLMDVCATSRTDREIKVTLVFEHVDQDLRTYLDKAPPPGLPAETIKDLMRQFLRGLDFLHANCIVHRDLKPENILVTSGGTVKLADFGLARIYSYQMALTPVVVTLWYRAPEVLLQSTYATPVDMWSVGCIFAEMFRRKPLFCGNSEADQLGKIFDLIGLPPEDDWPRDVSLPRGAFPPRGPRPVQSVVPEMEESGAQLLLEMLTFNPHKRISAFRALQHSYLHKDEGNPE
T1 sequence (P24385 whole entry partner): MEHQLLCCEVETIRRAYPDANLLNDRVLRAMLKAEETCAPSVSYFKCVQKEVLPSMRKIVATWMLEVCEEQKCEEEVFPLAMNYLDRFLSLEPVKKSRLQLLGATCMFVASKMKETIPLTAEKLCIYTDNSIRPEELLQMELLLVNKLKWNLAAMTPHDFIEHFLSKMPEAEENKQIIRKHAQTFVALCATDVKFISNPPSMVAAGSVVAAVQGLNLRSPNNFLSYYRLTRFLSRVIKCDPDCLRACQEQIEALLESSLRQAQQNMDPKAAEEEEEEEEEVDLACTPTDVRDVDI
T1 sequence (Q16531 2-1140 limits assumed, further chain): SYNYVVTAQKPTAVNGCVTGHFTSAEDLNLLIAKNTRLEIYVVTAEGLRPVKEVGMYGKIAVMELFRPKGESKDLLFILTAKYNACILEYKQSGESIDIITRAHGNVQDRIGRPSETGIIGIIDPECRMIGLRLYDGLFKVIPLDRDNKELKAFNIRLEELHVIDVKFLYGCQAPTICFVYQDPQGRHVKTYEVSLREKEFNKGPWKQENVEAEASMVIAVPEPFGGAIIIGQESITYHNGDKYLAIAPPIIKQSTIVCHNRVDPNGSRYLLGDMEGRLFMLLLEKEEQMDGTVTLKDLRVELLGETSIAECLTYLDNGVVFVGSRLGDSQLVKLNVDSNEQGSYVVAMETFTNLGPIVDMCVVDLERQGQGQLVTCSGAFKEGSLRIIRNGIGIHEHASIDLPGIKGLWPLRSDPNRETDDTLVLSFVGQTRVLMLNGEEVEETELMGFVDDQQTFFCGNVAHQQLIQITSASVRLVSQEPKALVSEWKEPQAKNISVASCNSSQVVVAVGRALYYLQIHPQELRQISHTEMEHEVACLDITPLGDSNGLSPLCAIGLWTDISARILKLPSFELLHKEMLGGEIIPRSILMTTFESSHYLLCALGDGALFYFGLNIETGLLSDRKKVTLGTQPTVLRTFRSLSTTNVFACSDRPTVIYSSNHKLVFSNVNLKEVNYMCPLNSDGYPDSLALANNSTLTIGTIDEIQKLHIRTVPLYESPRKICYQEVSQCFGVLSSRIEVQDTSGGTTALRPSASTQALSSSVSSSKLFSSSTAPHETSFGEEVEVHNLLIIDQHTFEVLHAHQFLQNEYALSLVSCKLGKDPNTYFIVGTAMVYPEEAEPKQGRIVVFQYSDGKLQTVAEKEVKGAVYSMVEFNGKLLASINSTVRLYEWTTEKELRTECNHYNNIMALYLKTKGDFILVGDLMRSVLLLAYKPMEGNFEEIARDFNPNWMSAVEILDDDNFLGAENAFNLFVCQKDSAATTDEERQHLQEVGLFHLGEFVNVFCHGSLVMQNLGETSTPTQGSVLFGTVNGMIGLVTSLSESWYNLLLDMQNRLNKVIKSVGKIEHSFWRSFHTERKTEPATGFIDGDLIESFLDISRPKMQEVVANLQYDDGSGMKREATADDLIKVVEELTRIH

Consider `COC(=O)c1cnc(NC(=O)c2ccc(NCCOCCOCCOCCOCCOCCNC(=O)CN3CCN(c4ccc(Nc5ncc6c(C)c(C(C)=O)c(=O)n(C7CCCC7)c6n5)nc4)CC3)cc2C)s1` [CPD-032, Methyl 2-(4-((1-(4-(6-((6-acetyl-8-cyclopentyl-5-methyl-7-oxo-7,8-dihydropyrido[2,3-d]pyrimidin-2-yl)amino)pyridin-3-yl)piperazin-1-yl)-2-oxo-6,9,12,15,18-pentaoxa-3-azaicosan-20-yl)amino)-2-methylbenzamido)thiazole-5-carboxylate], for which the inhibition at 0.2 µM on CDK4 (Calu-1 cells, 200 nM, 16 hours) is under 30%. Besides, the “CyclinD1 Degradation (200 nM)” value in the assay with cyclin D1 is “D (protein percentage degradation <30%)”.
In the case of `CC(=O)c1c(C)c2cnc(Nc3ccc(N4CCN(CC(=O)NCCC(=O)Nc5ccccc5C(=O)Nc5nc(C)c(C)s5)CC4)cn3)nc2n(C2CCCC2)c1=O` [CPD-146, 2-(3-(2-(4-(6-((6-Acetyl-8-cyclopentyl-5-methyl-7-oxo-7,8-dihydropyrido[2,3-d]pyrimidin-2-yl)amino)pyridin-3-yl)piperazin-1-yl)acetamido)propanamido)-N-(4,5-dimethylthiazol-2-yl)benzamide], at CDK4 (Calu-1, 16 h), the inhibition at 0.2 µM is under 30%. Also, in the assay on cyclin D1, the “CyclinD1 Degradation (200 nM)” value was “D (protein percentage degradation <30%)”.
Turning to `CC(=O)c1c(C)c2cnc(Nc3ccc(N4CCN(CC(=O)NCCCCCCCCNc5ccc(C)c(C(=O)Nc6nc(C)c(C)s6)c5)CC4)cn3)nc2n(C2CCCC2)c1=O` [CPD-095, 5-((8-(2-(4-(6-((6-Acetyl-8-cyclopentyl-5-methyl-7-oxo-7,8-dihydropyrido[2,3-d]pyrimidin-2-yl)amino)pyridin-3-yl)piperazin-1-yl)acetamido)octyl)amino)-N-(4,5-dimethylthiazol-2-yl)-2-methylbenzamide], at CDK4 (Calu-1 cells, 200 nM, 16 hours), the inhibition at 0.2 µM is under 30%. The “CyclinD1 Degradation (200 nM)” value in the assay with cyclin D1 was “D (protein percentage degradation <30%)”.
In the case of `CC(=O)c1c(C)c2cnc(Nc3ccc(N4CCN(C(=O)CCNc5cccc(C(=O)Nc6nc(C)c(C)s6)c5C)CC4)cn3)nc2n(C2CCCC2)c1=O` [CPD-112, 3-((3-(4-(6-((6-Acetyl-8-cyclopentyl-5-methyl-7-oxo-7,8-dihydropyrido[2,3-d]pyrimidin-2-yl)amino)pyridin-3-yl)piperazin-1-yl)-3-oxopropyl)amino)-N-(4,5-dimethylthiazol-2-yl)-2-methylbenzamide], on CDK4 (Calu-1, 16 h), the inhibition at 0.2 µM was under 30%. Besides, the “CyclinD1 Degradation (200 nM)” value with cyclin D1 is listed as “D (protein percentage degradation <30%)”.
For the molecule `Cc1nc(NC(=O)c2ccccc2NC(=O)CCCNC(=O)CN2CCN(Cc3ccc(Nc4ncc(F)c(-c5cc(F)c6nc(C)n(C(C)C)c6c5)n4)nc3)CC2)sc1C` [CPD-274, N-(4,5-Dimethylthiazol-2-yl)-2-(4-(2-(4-((6-((5-fluoro-4-(4-fluoro-1-isopropyl-2-methyl-1H-benzo[d]imidazol-6-yl)pyrimidin-2-yl)amino)pyridin-3-yl)methyl)piperazin-1-yl)acetamido)butanamido)benzamide], the inhibition at 10 µM on CDK4 (Calu-1 cells, 16 hours) was under 30%. In addition, in the assay on cyclin D1, the “CyclinD1 Degradation (10 μM)” value was “B (protein percentage degradation < 80%, and >= 50%)”.
For the molecule `Cc1nc(NC(=O)c2ccccc2NC(=O)CCOCCOCCOCCNC(=O)CN2CCN(c3ccc(Nc4ncc(F)c(-c5cc(F)c6nc(C)n(C(C)C)c6c5)n4)nc3)CC2)sc1C` [CPD-310, N-(4,5-Dimethylthiazol-2-yl)-2-(1-(4-(6-((5-fluoro-4-(4-fluoro-1-isopropyl-2-methyl-1H-benzo[d]imidazol-6-yl)pyrimidin-2-yl)amino)pyridin-3-yl)piperazin-1-yl)-2-oxo-6,9,12-trioxa-3-azapentadecan-15-amido)benzamide], on CDK4 (Calu-1 cells, 16 hours), the inhibition at 10 µM is under 30%. For the same molecule, the “CyclinD1 Degradation (10 μM)” value with cyclin D1 is listed as “A (protein percentage degradation >= 80%)”.
For `Cc1nc(NC(=O)c2ccccc2NC(=O)CCOCCOCCOCCOCCNC(=O)CN2CCN(c3ccc(Nc4ncc5cc6n(c5n4)C4(CCCCC4)CNC6=O)nc3)CC2)sc1C` [CPD-325, N-(4,5-Dimethylthiazol-2-yl)-2-(2-oxo-1-(4-(6-((6′-oxo-7′,8′-dihydro-6′H-spiro[cyclohexane-1,9′-pyrazino[1′,2′:1,5]pyrrolo[2,3-d]pyrimidin]-2′-yl)amino)pyridin-3-yl)piperazin-1-yl)-6,9,12,15-tetraoxa-3-azaoctadecan-18-amido)benzamide], the inhibition at 10 µM on CDK4 (Calu-1 cells, 16 hours) lay within 50 to 80%. In addition, the “CyclinD1 Degradation (10 μM)” value in the assay with cyclin D1 was “A (protein percentage degradation >= 80%)”.
With `CC(=O)c1c(C)c2cnc(Nc3ccc(N4CCN(CC(=O)NCCOCCOCCNc5cccc(C(=O)Nc6cc(C)n(C)n6)c5C)CC4)cn3)nc2n(C2CCCC2)c1=O` [CPD-067, 3-((2-(2-(2-(2-(4-(6-((6-Acetyl-8-cyclopentyl-5-methyl-7-oxo-7,8-dihydropyrido[2,3-d]pyrimidin-2-yl)amino)pyridin-3-yl)piperazin-1-yl)acetamido)ethoxy)ethoxy)ethyl)amino)-N-(1,5-dimethyl-1H-pyrazol-3-yl)-2-methylbenzamide], the inhibition at 0.2 µM at CDK4 (Calu-1 cells, 200 nM, 16 hours) fell in the range of 50 to 80%. Also, the “CyclinD1 Degradation (200 nM)” value with cyclin D1 is on record as “A (protein percentage degradation >=80%)”.
`CC(=O)c1c(C)c2cnc(Nc3ccc(N4CCN(CC(=O)NCCOCCOCCNC(=O)CNc5ccc(C(=O)Nc6ncc(C)s6)c(C)c5)CC4)cn3)nc2n(C2CCCC2)c1=O` [CPD-017, 4-((14-(4-(6-((6-Acetyl-8-cyclopentyl-5-methyl-7-oxo-7,8-dihydropyrido[2,3-d]pyrimidin-2-yl)amino)pyridin-3-yl)piperazin-1-yl)-2,13-dioxo-6,9-dioxa-3,12-diazatetradecyl)amino)-2-methyl-N-(5-methylthiazol-2-yl)benzamide]: the inhibition at 0.2 µM on CDK4 (Calu-1 cells, 200 nM, 16 hours) was under 30%. Besides, the “CyclinD1 Degradation (200 nM)” value with cyclin D1 is “D (protein percentage degradation <30%)”.
For `COc1ccc(NC(=O)c2ccccc2NC(=O)COCCN2CCC(NC(=O)CN3CCN(c4ccc(Nc5ncc6c(C)c(C(C)=O)c(=O)n(C7CCCC7)c6n5)nc4)CC3)CC2)nn1` [CPD-347, 2-(2-(2-(4-(2-(4-(6-((6-Acetyl-8-cyclopentyl-5-methyl-7-oxo-7,8-dihydropyrido[2,3-d]pyrimidin-2-yl)amino)pyridin-3-yl)piperazin-1-yl)acetamido)piperidin-1-yl)ethoxy)acetamido)-N-(6-methoxypyridazin-3-yl)benzamide] the same measures were under 30% and “D (protein percentage degradation <30%)”.
`CC(=O)c1c(C)c2cnc(Nc3ccc(N4CCN(CC(=O)NCCCCCNc5cc(Cl)ccc5C(=O)Nc5ccc(C)c(C6CC6)n5)CC4)cn3)nc2n(C2CCCC2)c1=O` [CPD-378, 2-((5-(2-(4-(6-((6-acetyl-8-cyclopentyl-5-methyl-7-oxo-7,8-dihydropyrido[2,3-d]pyrimidin-2-yl)amino)pyridin-3-yl)piperazin-1-yl)acetamido)pentyl)amino)-4-chloro-N-(6-cyclopropyl-5-methylpyridin-2-yl)benzamide]: the inhibition at 0.2 µM at CDK4 (Calu-1 cells, 200 nM, 16 hours) was under 30%. Besides, in the assay with cyclin D1, the “CyclinD1 Degradation (200 nM)” value was “B (protein percentage degradation <80%, and >=50%)”.
As for `COc1ccc(NC(=O)c2ccccc2NC(=O)CCN2CCN(CCNC(=O)CN3CCN(c4ccc(Nc5ncc6c(C)c(C(C)=O)c(=O)n(C7CCCC7)c6n5)nc4)CC3)CC2)nn1` [CPD-345, 2-(3-(4-(2-(2-(4-(6-((6-Acetyl-8-cyclopentyl-5-methyl-7-oxo-7,8-dihydropyrido[2,3-d]pyrimidin-2-yl)amino)pyridin-3-yl)piperazin-1-yl)acetamido)ethyl)piperazin-1-yl)propanamido)-N-(6-methoxypyridazin-3-yl)benzamide], at CDK4 (Calu-1 cells, 200 nM, 16 hours), the inhibition at 0.2 µM was in the range of 50 to 80%. In addition, the “CyclinD1 Degradation (200 nM)” value in the assay on cyclin D1 is listed as “A (protein percentage degradation >=80%)”.
For `CC(=O)c1c(C)c2cnc(Nc3ccc(N4CCN(CC(=O)NCCOCCOCCC(=O)Nc5cc(C)ccc5C(=O)Nc5nc(C)c(C)s5)CC4)cn3)nc2n(C2CCCC2)c1=O` [CPD-149, 2-(3-(2-(2-(2-(4-(6-((6-Acetyl-8-cyclopentyl-5-methyl-7-oxo-7,8-dihydropyrido[2,3-d]pyrimidin-2-yl)amino)pyridin-3-yl)piperazin-1-yl)acetamido)ethoxy)ethoxy)propanamido)-N-(4,5-dimethylthiazol-2-yl)-4-methylbenzamide] the same measures were over 80% and “A (protein percentage degradation >=80%)”.
For the molecule `CC(=O)c1c(C)c2cnc(Nc3ccc(N4CCN(CC(=O)NCCOCCOCCOCCOCCOCCNc5ccc(C(=O)Nc6cc(C)n(C)n6)c(C)c5)CC4)cn3)nc2n(C2CCCC2)c1=O` [CPD-050, 4-((1-(4-(6-((6-Acetyl-8-cyclopentyl-5-methyl-7-oxo-7,8-dihydropyrido[2,3-d]pyrimidin-2-yl)amino)pyridin-3-yl)piperazin-1-yl)-2-oxo-6,9,12,15,18-pentaoxa-3-azaicosan-20-yl)amino)-N-(1,5-dimethyl-1H-pyrazol-3-yl)-2-methylbenzamide], on CDK4 (Calu-1 cells, 200 nM, 16 hours), the inhibition at 0.2 µM is over 80%. The “CyclinD1 Degradation (200 nM)” value with cyclin D1 is recorded as “A (protein percentage degradation >=80%)”.
As to `CC(=O)c1c(C)c2cnc(Nc3ccc(N4CCN(CC(=O)NCCCCNc5cccc(C(=O)Nc6nc(C)c(C)s6)c5C)CC4)cn3)nc2n(C2CCCC2)c1=O` [CPD-099, 3-((4-(2-(4-(6-((6-Acetyl-8-cyclopentyl-5-methyl-7-oxo-7,8-dihydropyrido[2,3-d]pyrimidin-2-yl)amino)pyridin-3-yl)piperazin-1-yl)acetamido)butyl)amino)-N-(4,5-dimethylthiazol-2-yl)-2-methylbenzamide], the inhibition at 0.2 µM on CDK4 (Calu-1 cells, 200 nM, 16 hours) was under 30%. Besides, in the assay on cyclin D1, the “CyclinD1 Degradation (200 nM)” value was “D (protein percentage degradation <30%)”.
